Test results taken from publication PMC10247784, “Physiological activation of human and mouse bitter taste receptors by bile acids” (Communications Biology, 2023).

Target: T1, mouse Tas2r126 (Mus musculus, UniProt P59532)
T1 construct: expressed in transfected cells; host or cells: HEK293T-Gα16gust44
T1 sequence (P59532 1-308): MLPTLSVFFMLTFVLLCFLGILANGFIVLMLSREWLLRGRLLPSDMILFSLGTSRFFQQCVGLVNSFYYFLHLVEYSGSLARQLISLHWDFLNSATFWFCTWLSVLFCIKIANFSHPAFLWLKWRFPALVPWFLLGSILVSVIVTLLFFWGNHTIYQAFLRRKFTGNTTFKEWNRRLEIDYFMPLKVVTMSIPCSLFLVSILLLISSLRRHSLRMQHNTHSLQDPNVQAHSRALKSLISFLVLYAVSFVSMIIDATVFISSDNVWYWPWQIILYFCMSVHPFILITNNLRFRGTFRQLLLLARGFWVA
Experiment: Calcium imaging assay (FLIPR), HEK293T-Gα16gust44 cells transfected with mouse Tas2r126
Format: cell-based
Description: This set of bile acids was chosen because of their commercial availability in high purities, their diversity within the class of bile acids and their previous detection and quantitation in human blood. Stock solutions were prepared in DMSO.
As basal growth medium for the HEK293T-Gα16gust44 cell line[17],[59] served Dulbecco’s modified eagle medium (DMEM) (Thermo Fisher Scientific, Darmstadt, Germany) supplemented with 10 % fetal bovine serum (Sigma-Aldrich, Steinheim, Germany), 2 mM L-glutamine (Sigma-Aldrich, Steinheim, Germany), 100 units/ml penicillin (Sigma Aldrich, Steinheim, Germany) and 100 µg/ml streptomycin (Sigma Aldrich, Steinheim, Germany). Growth conditions were 37 °C, 5 % CO2 and saturated air-humidity[60].
HEK293T-Gα16gust44 cells were seeded on poly-D-lysine (10 µg/ml) coated 96-well plates to reach a confluence of 40-60 % the next day. For transient transfection 150 ng of plasmid DNA containing the receptor of interest and 0.3 µl lipofectamine 2000 (Thermo Fisher Scientific, Darmstadt, Germany) per well were used and transfection took place according to the manual of lipofectamine 2000. […] The empty vector DNA (mock) was transfected as negative control[14],[41].
Cells were loaded using the calcium-sensitive fluorescent dye Fluo-4-AM (Abcam, Cambridge, Great Britain) in the presence of 2.5 mM probenecid (Sigma-Aldrich, Steinheim, Germany) the day after transfection[13],[41]. 1 h after loading, cells were washed with C1 buffer using a BioTek Cell Washer, incubated in the dark for half an hour and washed again. For automated agonist application and measurement of fluorescence changes, a FLIPR^TETRA device (Molecular Devices, San José, United States) was used. Viability of cells was tested by application of 100 nM Somatostatin 14 (Bachem, Bubendorf, Switzerland)[42].
Measured data were negative control corrected by subtracting the signal of the mock-transfected cells and exported to Microsoft Excel using the FLIPR software ScreenWorks 4.2. In Microsoft Excel software, standardization of maximum fluorescence intensities to the basal fluorescence and normalization to the buffer-only control was done to calculate the relative fluorescence changes (ΔF/F).
Initial screening experiments performed in duplicate wells were confirmed by at least one replication and representative traces were selected for display. All dose-response relationships were determined by three independent experiments (biological replicates) performed in duplicates (technical replicates). Threshold concentrations, defined as lowest substance concentrations leading to statistically significant elevated fluorescence changes in receptor-transfected cells compared with empty vector-transfected cells, were determined using SigmaPlot with Student’s t-test to evaluate statistical significance (p < 0.01).

In the case of C[C@H](CCC(=O)O)[C@H]1CC[C@H]2[C@@H]3[C@H](O)C[C@@H]4C[C@H](O)CC[C@]4(C)[C@H]3C[C@H](O)[C@]12C [Cholic Acid, cholic acid], the RLU (Time 0 s) is reported as 0 RLU, the RLU (Time 2 s) is reported as 6.32 RLU and the RLU (Time 4 s) is reported as -17.4742 RLU. For the same compound, the RLU (Time 6 s) was 5.446 RLU, the RLU (Time 8 s) was 10.1237 RLU and the RLU (Time 12 s) was 18.7423 RLU. The RLU (Time 14 s) was -3.953 RLU, the RLU (Time 16 s) was -7.647 RLU and the RLU (Time 18 s) was 11.4341 RLU. It also gave an RLU (Time 18.781 s) of -6.409 RLU, an RLU (Time 20.781 s) of -22.1196 RLU and an RLU (Time 22.781 s) of 57.6732 RLU. The RLU (Time 24.781 s) was 119.461 RLU, the RLU (Time 26.781 s) was 150.574 RLU and the RLU (Time 28.781 s) was 265.727 RLU. It also gave an RLU (Time 30.781 s) of 370.327 RLU, an RLU (Time 32.781 s) of 482.177 RLU and an RLU (Time 34.781 s) of 570.785 RLU. For the same compound, the RLU (Time 36.781 s) was 665.431 RLU, the RLU (Time 38.781 s) was 689.631 RLU and the RLU (Time 40.781 s) was 736.63 RLU. For the same compound, the RLU (Time 42.781 s) was 773.753 RLU, the RLU (Time 44.781 s) was 819.752 RLU and the RLU (Time 46.781 s) was 829.41 RLU. For the same compound, the RLU (Time 48.781 s) was 884.282 RLU, the RLU (Time 50.781 s) was 903.917 RLU and the RLU (Time 52.781 s) was 907.88 RLU. It also gave an RLU (Time 54.781 s) of 897.488 RLU, an RLU (Time 56.781 s) of 894.491 RLU and an RLU (Time 58.781 s) of 914.837 RLU. It also gave an RLU (Time 60.781 s) of 925.711 RLU, an RLU (Time 62.781 s) of 919.134 RLU and an RLU (Time 64.781 s) of 943.476 RLU. For the same compound, the RLU (Time 66.781 s) was 923.886 RLU, the RLU (Time 68.781 s) was 937.947 RLU and the RLU (Time 70.781 s) was 951.397 RLU. For the same compound, the RLU (Time 72.781 s) was 951.831 RLU, the RLU (Time 74.781 s) was 959.178 RLU and the RLU (Time 76.781 s) was 961.002 RLU. It also gave an RLU (Time 78.781 s) of 948.826 RLU, an RLU (Time 80.781 s) of 939.325 RLU and an RLU (Time 82.781 s) of 951.223 RLU. For the same compound, the RLU (Time 84.781 s) was 936.985 RLU, the RLU (Time 86.781 s) was 922.709 RLU and the RLU (Time 88.781 s) was 911.664 RLU. It also gave an RLU (Time 90.781 s) of 942.653 RLU, an RLU (Time 92.781 s) of 908.427 RLU and an RLU (Time 94.781 s) of 912.682 RLU. For the same compound, the RLU (Time 96.781 s) was 907.486 RLU, the RLU (Time 98.781 s) was 899.352 RLU and the RLU (Time 100.781 s) was 901.766 RLU. The RLU (Time 102.781 s) was 898.622 RLU, the RLU (Time 104.781 s) was 885.627 RLU and the RLU (Time 106.781 s) was 885.616 RLU. It also gave an RLU (Time 108.781 s) of 859.767 RLU, an RLU (Time 110.781 s) of 849.777 RLU and an RLU (Time 112.781 s) of 824.416 RLU. The RLU (Time 114.781 s) was 805.273 RLU, the RLU (Time 116.781 s) was 784.094 RLU and the RLU (Time 118.781 s) was 781.757 RLU. The RLU (Time 120.781 s) was 784.883 RLU, the RLU (Time 122.781 s) was 777.647 RLU and the RLU (Time 124.781 s) was 774.835 RLU. The RLU (Time 126.781 s) was 752.144 RLU, the RLU (Time 128.781 s) was 755.376 RLU and the RLU (Time 130.781 s) was 741.203 RLU. The RLU (Time 132.781 s) was 735.986 RLU, the RLU (Time 134.781 s) was 705.295 RLU and the RLU (Time 136.781 s) was 715.373 RLU. For the same compound, the RLU (Time 137.563 s) was 694.021 RLU, the RLU (Time 143.563 s) was 674.141 RLU and the RLU (Time 149.563 s) was 648.129 RLU. It also gave an RLU (Time 155.563 s) of 630.623 RLU, an RLU (Time 161.563 s) of 621.371 RLU and an RLU (Time 167.563 s) of 569.451 RLU. For the same compound, the RLU (Time 173.563 s) was 563.656 RLU, the RLU (Time 179.563 s) was 519.424 RLU and the RLU (Time 185.563 s) was 518.545 RLU. For the same compound, the RLU (Time 191.563 s) was 496.035 RLU, the RLU (Time 197.563 s) was 519.073 RLU and the RLU (Time 203.563 s) was 511.704 RLU. It also gave an RLU (Time 209.563 s) of 507.09 RLU, an RLU (Time 215.563 s) of 499.344 RLU and an RLU (Time 221.563 s) of 510.025 RLU. It also gave an RLU (Time 227.563 s) of 524.879 RLU, an RLU (Time 233.563 s) of 522.75 RLU and an RLU (Time 239.563 s) of 547.672 RLU. For the same compound, the RLU (Time 245.563 s) was 498.436 RLU, the RLU (Time 293.563 s) was 489.083 RLU and the RLU (Time 299.563 s) was 473.554 RLU. For the same compound, the RLU (Time 305.563 s) was 449.101 RLU, the RLU (Time 311.563 s) was 467.667 RLU and the RLU (Time 317.563 s) was 473.372 RLU. For the same compound, the RLU (Time 323.563 s) was 461.769 RLU, the RLU (Time 329.563 s) was 454.066 RLU and the RLU (Time 335.563 s) was 446.164 RLU. For the same compound, the RLU (Time 341.563 s) was 461.362 RLU, the RLU (Time 347.563 s) was 456.539 RLU and the RLU (Time 353.563 s) was 466.548 RLU. The RLU (Time 359.563 s) was 455.13 RLU and the “Activation threshold concentration Tas2r126” value (p < 0.01 vs empty vector) was 100 µM.
